Measured values: ChEMBL document CHEMBL3045608, “Docking simulations, synthesis, and anti-inflammatory activity evaluation of 2-(N-alkyl)amino-3-nitroimidazo[1,2-a]pyridines” (Med Chem Res, 2012)
Active and inactive are the calls of the source. The rule behind the calls is not given here.

Tests used:
[1] = target: Prostaglandin G/H synthase 1 (Homo sapiens) (UniProt P23219); assay: Binding affinity to COX1 (unknown origin)
[2] = target: T1, Prostaglandin G/H synthase 1 (Ovis aries) (UniProt P05979); assay: Inhibition of Ovis aries (sheep) COX1 at 0.1 uM by colorimetric analysis
T1 sequence (whole entry): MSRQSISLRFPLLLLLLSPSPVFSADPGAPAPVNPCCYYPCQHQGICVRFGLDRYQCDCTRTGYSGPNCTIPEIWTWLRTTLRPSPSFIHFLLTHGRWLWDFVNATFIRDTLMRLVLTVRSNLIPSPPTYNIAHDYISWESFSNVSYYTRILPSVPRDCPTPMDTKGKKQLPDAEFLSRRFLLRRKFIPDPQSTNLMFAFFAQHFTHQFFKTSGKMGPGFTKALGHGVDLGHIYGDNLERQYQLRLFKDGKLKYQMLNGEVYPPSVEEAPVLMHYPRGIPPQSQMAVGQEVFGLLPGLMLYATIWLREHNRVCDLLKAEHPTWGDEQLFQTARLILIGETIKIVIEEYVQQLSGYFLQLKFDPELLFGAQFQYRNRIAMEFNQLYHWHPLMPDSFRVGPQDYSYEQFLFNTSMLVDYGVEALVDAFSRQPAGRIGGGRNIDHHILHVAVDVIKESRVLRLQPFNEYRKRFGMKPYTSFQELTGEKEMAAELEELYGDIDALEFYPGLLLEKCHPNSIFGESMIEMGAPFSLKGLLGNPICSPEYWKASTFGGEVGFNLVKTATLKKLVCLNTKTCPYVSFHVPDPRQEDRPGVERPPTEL

Rattus norvegicus [3] = assay: Gastrointestinal toxicity in Rattus norvegicus Wistar (rat) assessed as induction of duodenum macroscopic damage at 20 mg/kg, po measured on day 8; assay type: organism-based; design: dose 20 mg/kg, route oral; conditions: in vivo
Rattus norvegicus [4] = assay: Gastrointestinal toxicity in Rattus norvegicus Wistar (rat) assessed as induction of stomach macroscopic damage at 20 mg/kg, po measured on day 8; assay type: organism-based; design: dose 20 mg/kg, route oral; conditions: in vivo
Rattus norvegicus [5] = assay: Anti-inflammatory activity in Rattus norvegicus Wistar (rat) assessed as decrease in cotton pellet-induced total weight of granuloma at 20 mg/kg, po measured on day 8; assay type: functional, organism-based; design: dose 20 mg/kg
Rattus norvegicus [6] = assay: Anti-inflammatory activity in Rattus norvegicus Wistar (rat) assessed as decrease in cotton pellet-induced wet weight of granuloma at 20 mg/kg, po measured on day 8; assay type: functional, organism-based; design: dose 20 mg/kg
Rattus norvegicus [7] = assay: Anti-inflammatory activity in Rattus norvegicus Wistar (rat) assessed as decrease in cotton pellet-induced dry weight of granuloma at 20 mg/kg, po measured on day 8; assay type: functional, organism-based; design: dose 20 mg/kg
[8] = target: T2, Prostaglandin G/H synthase 2 (Homo sapiens) (UniProt P35354); assay: Binding affinity to COX2 (unknown origin)
T2 sequence (whole entry): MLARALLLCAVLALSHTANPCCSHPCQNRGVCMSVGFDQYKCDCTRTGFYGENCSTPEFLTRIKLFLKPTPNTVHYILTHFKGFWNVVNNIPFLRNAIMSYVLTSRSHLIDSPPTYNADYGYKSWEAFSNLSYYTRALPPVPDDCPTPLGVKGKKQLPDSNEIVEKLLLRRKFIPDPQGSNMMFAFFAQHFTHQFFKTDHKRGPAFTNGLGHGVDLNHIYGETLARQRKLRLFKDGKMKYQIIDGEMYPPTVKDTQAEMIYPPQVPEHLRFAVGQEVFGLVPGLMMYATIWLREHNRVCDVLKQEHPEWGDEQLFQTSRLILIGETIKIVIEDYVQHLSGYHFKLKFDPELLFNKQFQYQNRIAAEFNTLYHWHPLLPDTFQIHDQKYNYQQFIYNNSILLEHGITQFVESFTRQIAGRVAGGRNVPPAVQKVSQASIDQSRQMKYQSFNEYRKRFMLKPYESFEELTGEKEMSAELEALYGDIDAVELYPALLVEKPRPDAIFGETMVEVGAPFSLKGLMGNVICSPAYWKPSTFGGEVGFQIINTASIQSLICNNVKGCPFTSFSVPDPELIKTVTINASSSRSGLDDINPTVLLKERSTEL

Rattus norvegicus [9] = assay: Anti-inflammatory activity in Rattus norvegicus Wistar (rat) assessed as decrease in cotton pellet-induced granuloma weight at 20 mg/kg, po measured on day 8; assay type: functional, organism-based; design: dose 20 mg/kg

Chain of Prostaglandin G/H synthase 1 (Homo sapiens) (P23219 whole entry): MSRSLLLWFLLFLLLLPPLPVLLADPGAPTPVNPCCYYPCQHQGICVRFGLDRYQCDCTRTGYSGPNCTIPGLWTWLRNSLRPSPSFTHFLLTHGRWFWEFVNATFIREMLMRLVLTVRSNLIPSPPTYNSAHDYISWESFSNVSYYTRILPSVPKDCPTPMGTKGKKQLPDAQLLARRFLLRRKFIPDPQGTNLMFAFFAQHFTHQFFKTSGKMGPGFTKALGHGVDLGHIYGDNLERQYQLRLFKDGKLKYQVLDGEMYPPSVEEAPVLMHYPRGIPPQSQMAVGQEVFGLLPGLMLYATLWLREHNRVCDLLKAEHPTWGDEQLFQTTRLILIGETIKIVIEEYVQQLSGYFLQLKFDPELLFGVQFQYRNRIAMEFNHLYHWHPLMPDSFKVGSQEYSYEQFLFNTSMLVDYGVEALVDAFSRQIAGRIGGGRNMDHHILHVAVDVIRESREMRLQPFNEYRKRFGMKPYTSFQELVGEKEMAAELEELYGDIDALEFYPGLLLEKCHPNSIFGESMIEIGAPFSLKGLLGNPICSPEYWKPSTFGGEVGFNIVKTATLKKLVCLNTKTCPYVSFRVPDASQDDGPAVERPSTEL

Compound | Activity [1] | Activity (Rattus norvegicus [3]) | Activity (Rattus norvegicus [4]) | Activity [8] | also measured
C[C@H](Nc1nc2ccccn2c1[N+](=O)[O-])c1ccccc1 | Active | – | – | – | –
O=[N+]([O-])c1c(NC2CC2)nc2ccccn12 | Active | Non-toxic | Non-toxic | – | inhibition [2]: 3.8%; Activity (Rattus norvegicus [5]): Active; Activity (Rattus norvegicus [6]): Active; Activity (Rattus norvegicus [7]): Active
CC(C)Nc1nc2ccccn2c1[N+](=O)[O-] | Active | – | – | – | –
O=[N+]([O-])c1c(NCc2ccccc2)nc2ccccn12 | Active | Non-toxic | Non-toxic | Active | Activity (Rattus norvegicus [9]): inactive
C[C@@H](Nc1nc2ccccn2c1[N+](=O)[O-])c1ccccc1 | Active | – | – | Active | –
CC(C)N(c1nc2ccccn2c1[N+](=O)[O-])C(C)C | Active | Non-toxic | Non-toxic | – | Activity (Rattus norvegicus [9]): inactive
CCCCNc1nc2ccccn2c1[N+](=O)[O-] | Active | – | – | – | –
CCCCN(CCCC)c1nc2ccccn2c1[N+](=O)[O-] | Active | – | – | – | –
O=[N+]([O-])c1c(NC2CCCCC2)nc2ccccn12 | Active | – | – | Active | –
